# Data reported in patent US12195427B2, “MASP-2 inhibitors and methods of use” (priority 2018, dated 2025).
# Target: MASP-2 CCP2-SP (Homo sapiens (Human), UniProt O00187)
# Experiment: MASP-2 co-crystallization, X-ray crystallography and structure analysis (H-bonds, van der Waals contacts);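 on Ligand-pharmacophore element distance, pharmacophore element C2: distance from averaged pharmacophore element to bound ligand; missing value means element absent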;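 on Ligand-pharmacophore element distance, pharmacophore element C3: distance from averaged pharmacophore element to bound ligand; missing value means element absent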;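 on Ligand-pharmacophore element distance, pharmacophore element C4: distance from averaged pharmacophore element to bound ligand; missing value means element absent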;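 on Ligand-pharmacophore element distance, pharmacophore element C5: distance from averaged pharmacophore element to bound ligand; missing value means element absent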
# Parameters: van der Waals contact distance, MASP-2 HIS 483 atom CD2 / van der Waals contact distance, MASP-2 HIS 483 atom NE2 / van der Waals contact distance, SER 654 C to compound atom / van der Waals contact distance, SER 654 O to compound atom / van der Waals contact distance, TRP 655 C to compound atom / van der Waals contact distance, MASP-2 GLY 528 atom CA / van der Waals contact distance TRP 655 atom CZ3 / van der Waals contact distance TRP 655 atom N / van der Waals contact distance TRP 655 atom CE3 / van der Waals contact distance GLY 656 atom C / van der Waals contact distance GLY 656 atom CA / van der Waals contact distance GLY 656 atom O / van der Waals contact distance, MASP-2 TYR 607 atom CD1 / van der Waals contact distance, MASP-2 PRO 606 atom O / d(C3,CA1) / d(CA1,N1)2 / d(H4,O1) / d(H4,O2) / d(O1,O2) / d(CA1,O2) / d(CA6,O1) / d(CA6,O2) / d(CA1,C5) / d(O2,H3) / d(N2,C2) / d(CA5,N2) / d(N2,C4) / d(N2,C6) / d(N2,CA3) / d(N2,O3) / d(O4,H2): unit not given beside the values
# Conditions: for H-bond distance to MASP-2 ASP 627 atom OD2: ASP 627 OD2; for H-bond distance to MASP-2 GLY 656 atom N: GLY 656 N; for H-bond distance to MASP-2 GLY 656 atom O: GLY 656 O; for H-bond distance to MASP-2 SER 654 atom O: SER 654 O; for H-bond distance to MASP-2 SER 657 atom O: SER 657 O; for van der Waals contact distance TRP 655 atom CE3: MASP-2 TRP 655 CE3, compound atom in line below
# Text: This example illustrates the preparation of recombinant MASP-2 protein, based on UniProt O00187, human mannan-binding lectin serine protease 2. Expression constructs for human MASP-2 CCP2-SP and CCP2-SP-6HIS were generated for recombinant expression in E. coli cells.
# Typically, crystallization hits were obtained by screening against […] 96-well crystallization reagent kits (GRAS6, GRAS2, Hampton Research; MORPHEUS, Molecular Dimensions; Wizard 1&2 Cryo, Rigaku Reagents) and crystal growth was inspected by optical microscopy. Crystals were used directly or further optimized for X-ray diffraction. Crystals were captured with cryogenic loops and dipped into liquid nitrogen directly or cryoprotected with a 20% glycerol in crystallization formulation before flash-cooling in liquid nitrogen.
# Thereafter crystals are transferred once or twice for soaking within the crystallization solution containing the MASP-2 inhibitor.
# Crystals were diffracted with synchrotron X-rays of […] and X-ray diffraction datasets were collected at beamlines SSRL BL9-2, BL14-1, BL12-2 as well as ALS sector 5 using Dectris Pilatus and Eiger detectors. Structures were determined by molecular replacement using portions of the structure 1Q3X as search models and partially refined with Buster 2.10.2 or Refmac 5.8. […] When multiple ligand poses were observed, for instance arising from multiple molecules in the asymmetric unit or refined dual poses within the same molecule, only one pose was selected and analyzed.
# LigPlot+ calls these ‘nonbonded contacts’ or ‘hydrophobic contacts’. Despite the name, there are atom pairings that include possible H-bonds. Thus, in some instances, the Table A2 also contains H-bond interactions.
# [1] = Table A5-1 pharmacophore: distance between elements, S2/S1 region
# [2] = Table A5-2 pharmacophore distance, S3/S4 region
# [3] = Table A7-1, between pharmacophore elements of the bound compound
# [4] = Table A7-2, between pharmacophore elements of the bound compound
# Sequence of MASP-2 CCP2-SP (O00187 445-686): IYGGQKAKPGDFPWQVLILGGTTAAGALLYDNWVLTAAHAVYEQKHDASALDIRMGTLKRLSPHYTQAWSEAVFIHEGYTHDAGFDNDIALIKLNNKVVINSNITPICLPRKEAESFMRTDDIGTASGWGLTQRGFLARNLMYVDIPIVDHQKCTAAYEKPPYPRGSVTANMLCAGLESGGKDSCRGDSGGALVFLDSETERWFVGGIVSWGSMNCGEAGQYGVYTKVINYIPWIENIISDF
# Sequence of MASP-2 CCP2-SP (O00187 364-432 partner): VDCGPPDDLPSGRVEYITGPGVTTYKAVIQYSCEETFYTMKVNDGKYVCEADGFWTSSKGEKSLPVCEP
compound,measurement,setting,value
"Cc1nc(N)ccc1CNC(=O)[C@H](C)NC(=O)[C@H]1C[C@H](Cc2cccc(-c3ccccc3)c2)CN1 [compound 1406, (2R,4S)-4-([1,1′-Biphenyl]-3-ylmethyl)-N—((S)-1-(((6-amino-2-methylpyridin-3-yl)methyl)amino)-1-oxopropan-2-yl)pyrrolidine-2-carboxamide Dihydrochloric acid]",H-bond distance to MASP-2 ASP 627 atom OD2,Table A1 (H-Bonds),3.22
same,H-bond distance to MASP-2 GLY 656 atom N,Table A1 (H-Bonds),3.28
same,H-bond distance to MASP-2 GLY 656 atom O,Table A1 (H-Bonds),2.76
same,H-bond distance to MASP-2 SER 654 atom O,Table A1 (H-Bonds),2.96
same,H-bond distance to MASP-2 SER 657 atom O,Table A1 (H-Bonds),2.78
same,"van der Waals contact distance, MASP-2 amino acid atom to compound atom",Table A2,3.74
same,"van der Waals contact distance, MASP-2 ASP 526 atom C",Table A2-1,3.55
same,"van der Waals contact distance, MASP-2 ASP 526 atom CA",Table A2-1,3.89
same,"van der Waals contact distance, MASP-2 ASP 526 atom O",Table A2-1,3.69
same,"van der Waals contact distance, MASP-2 HIS 483 atom CD2",Table A2-1,3.7
same,"van der Waals contact distance, MASP-2 HIS 483 atom NE2",Table A2-1,3.67
same,"van der Waals contact distance, MASP-2 ALA 527 atom C",Table A2-2,3.68
same,"van der Waals contact distance, MASP-2 ALA 527 atom CA",Table A2-2,3.83
same,"van der Waals contact distance, MASP-2 amino acid atom to compound atom","Table A2-7: SER 628 (CB, O, OG)",3.76
same,"van der Waals contact distance, SER 654 C to compound atom",Table A2-11,3.59
same,"van der Waals contact distance, VAL 653 CG1 to compound atom",Table A2-11,3.27
same,van der Waals contact distance TRP 655 atom CE3,Table A2-13,3.7
same,van der Waals contact distance TRP 655 atom CZ3,"Table A2-13, MASP-2 TRP 655 CZ3",3.51
same,van der Waals contact distance TRP 655 atom N,"Table A2-13, MASP-2 TRP 655 N",3.85
same,"Ligand-pharmacophore element distance, pharmacophore element C2","Table A4-1, element C2",0
same,"Ligand-pharmacophore element distance, pharmacophore element C3","Table A4-1, element C3",0.12
same,"Ligand-pharmacophore element distance, pharmacophore element C4","Table A4-1, element C4",0
same,"Ligand-pharmacophore element distance, pharmacophore element C5","Table A4-1, element C5",0
same,"Ligand-pharmacophore element distance, pharmacophore element C6","Table A4-1, element C6",0
same,"Ligand-pharmacophore element distance, pharmacophore element C7","Table A4-1, element C7",0
same,"Ligand-pharmacophore element distance, pharmacophore element CA1","Table A4-1, element CA1",0.56
same,"Ligand-pharmacophore element distance, pharmacophore element CA2","Table A4-1, element CA2",0.42
same,"Ligand-pharmacophore element distance, pharmacophore element CA3","Table A4-1, element CA3",0
same,"Ligand-pharmacophore element distance, pharmacophore element CA4","Table A4-1, element CA4",1.59
same,"Ligand-pharmacophore element distance, pharmacophore element CA5","Table A4-1, element CA5",0
same,"Ligand-pharmacophore element distance, pharmacophore element CA6","Table A4-1, element CA6",0
same,"d(C3,CA1)",[1],2.86
same,"d(CA1,N1)2",[1],1.38
same,"d(CA1,O1)",[1],4.36
same,"d(CA1,O2)",[1],4.00
same,"d(H4,O1)",[1],4.35
same,"d(H4,O2)",[1],3.89
same,"d(O1,O2)",[1],3.29
same,"d(N2,CA2)",[2],5.98
same,"d(O2,H3)",[2],4.44
same,"d(O2,N2)",[2],2.64
same,"a(C3, CA1, O1)",Table A6-1 pharmacophore angle,149.47
same,"a(CA1, O1, O2)",Table A6-1 pharmacophore angle,107.31
same,"a(O1, O2, H4)",Table A6-1 pharmacophore angle,133.28
same,"a(N1, CA1, O1) b)","Table A6-1 pharmacophore angle, Methyl-amino-pyridine compounds",173.92
same,"a(O1, O2, H3)",Table A6-2 pharmacophore angle,147.38
same,"a(O1, O2, N2)",Table A6-2 pharmacophore angle,140.17
same,"a(O2, N2, CA2)",Table A6-2 pharmacophore angle,156.30
same,"Pharmacophore torsion angle a(C3, CA1, O1, H4)",[3],23.93
same,"Pharmacophore torsion angle a(H4, O1, O2, H3)",[3],50.99
same,"Pharmacophore torsion angle a(H4, O1, O2, N2)",[3],135.75
same,"Pharmacophore torsion angle a(N1, CA1, O1, H4)",[3],−2.51
same,"Pharmacophore torsion angle a(O1, H4, O2, CA1)",[3],−83.05
same,"Pharmacophore torsion angle a(O1, O2, N2, CA2)",[4],127.54
same,"Pharmacophore torsion angle a(O1, O2, N2, CA4)",[4],102.90
"Cc1nc(N)ccc1CNC(=O)[C@H](C)NC(=O)[C@H]1C[C@@H](c2cccc3ccccc23)CCN1 [compound 1297, (2R,4S)—N—((S)-1-(((6-Amino-2-methylpyridin-3-yl)methyl)amino)-1-oxopropan-2-yl)-4-(naphthalen-1-yl)piperidine-2-carboxamide]",H-bond distance to MASP-2 ASP 627 atom OD2,Table A1 (H-Bonds),3.13
same,H-bond distance to MASP-2 GLY 656 atom N,Table A1 (H-Bonds),3.33
same,H-bond distance to MASP-2 GLY 656 atom O,Table A1 (H-Bonds),2.67
same,H-bond distance to MASP-2 SER 628 atom O,"Table A1 (H-Bonds), SER 628 O",2.96
same,H-bond distance to MASP-2 SER 654 atom O,Table A1 (H-Bonds),2.88
same,H-bond distance to MASP-2 SER 657 atom O,Table A1 (H-Bonds),3.06
same,"van der Waals contact distance, MASP-2 HIS 483 atom CD2",Table A2-1,3.74
same,"van der Waals contact distance, MASP-2 HIS 483 atom NE2",Table A2-1,3.84
same,"van der Waals contact distance, MASP-2 GLY 528 atom CA",Table A2-2,3.76
same,"van der Waals contact distance, MASP-2 TYR 607 atom CD1",Table A2-4,3.81
same,"van der Waals contact distance, MASP-2 amino acid atom to compound atom","Table A2-9, ARG 630, AA atoms CG, CZ",3.47
same,"van der Waals contact distance, VAL 653 CG1 to compound atom",Table A2-11,3.22
same,"van der Waals contact distance, SER 654 O to compound atom",Table A2-12,3.51
same,"van der Waals contact distance, TRP 655 C to compound atom",Table A2-12,3.89
same,"van der Waals contact distance, TRP 655 CA to compound atom",Table A2-12,3.49
same,van der Waals contact distance TRP 655 atom CE3,Table A2-13,3.54
